Measured values as given in PMC9388626, “STUB1 is an intracellular checkpoint for interferon gamma sensing” (Scientific Reports, 2022).

Legend:
[1] = tested on: B16-F10 cells; test: Flow cytometry, surface MHC-I on CRISPR-edited cells with IFNγ; format: cell-based, murine; settings: for Surface MHC-I relative to Parental (Fig. 1c): Parental = 1.00
Description: Parental, CRISPR-edited or biologic-overexpressed tumour cells were seeded in a cell density of 60,000 (B16-F10), 150,000 (CT26), 100,000 (A375), or 200,000 (A549) per well in 12-well plate filled with 0.8 ml culture media + 10% FBS. After overnight incubation, the culture media were replaced with 1 ml fresh media supplemented with 10% FBS and the designated concentration of the recombinant mouse IFNγ (R&D Systems, #485-MI-100) or recombinant human IFNγ (R&D Systems, #285-IF-100). […]
(§1) Cells were dissociated from the wells with 0.25% trypsin (Gibco, 25200056). After rinsing with 0.5 ml PBS, each sample was stained with the LIVE/DEAD Fixable Aqua dead cell staining solution (Life Technologies, L34957) in 100 µl PBS (1:1000 dilution) for 15 min at 4 °C. After rinsing with 2 × 0.5 ml PBS, each sample was stained with the corresponding primary antibody-dye conjugates diluted in 100 µl Pharmingen stain buffer (BD Biosciences, #554657). After 1 h staining at 4 °C, the cells were rinsed with 2 × 2 ml Pharmingen stain buffer and fixed with 4.21% (w/w) formaldehyde (BD Biosciences, #554655). Cells were analyzed on LSRFortessa X-20 (BD Biosciences) with appropiate fluorescence compensation. The data were analyzed using FlowJo. Cells were gated based on FSC and SSC. Single cells were selected using FSC-A and FSC-H and viable cells were selected using LIVE/DEAD signal. Primary antibodies used were: H-2K^b/H-2D^b (FITC, Biolegend, #114606, 1:50 dilution), HLA-A,B,C (FITC, Biolegend, #311404, 1:100 dilution), mouse IFNGR1 (PE, Invitrogen, #12-1191-82, 1:50 dilution), human IFNGR1 (PE, Miltenyi, #130-125-851, 1:50 dilution), mouse IL1R1 (APC, Biolegend, #113509, 1:20 dilution), mouse IL6R (APC, Biolegend, #115812, 1:20 dilution), mouse IFNAR1 (APC, Biolegend, #127314, 1:20 dilution), and mouse GP130 (PE, Biolegend, #149404, 1:100 dilution).

[2] = tested on: B16-F10 cells; test: Flow cytometry, surface IFNGR1 on CRISPR-edited cells; format: cell-based, murine; settings: for Surface IFNGR1 relative to Parental (Fig. 2c): Parental = 1.00
Description: Parental, CRISPR-edited or biologic-overexpressed tumour cells were seeded in a cell density of 60,000 (B16-F10), 150,000 (CT26), 100,000 (A375), or 200,000 (A549) per well in 12-well plate filled with 0.8 ml culture media + 10% FBS. After overnight incubation, the culture media were replaced with 1 ml fresh media supplemented with 10% FBS and the designated concentration of the recombinant mouse IFNγ (R&D Systems, #485-MI-100) or recombinant human IFNγ (R&D Systems, #285-IF-100). The cells were stimulated with the cytokine for 24 h before they were harvested by trypsinization for flow cytometry, western blot, or qPCR analysis (6 h treatment).
as §1

gStub1 #1 (guide GCATTGCTAAGAAGAAGCGC; chemistry not given here)
Surface MHC-I (Fig. 1b) ([1]; IFNg 0.01 ng/ml, replicate 1): 389
Surface MHC-I relative to Parental (Fig. 1c) ([1]; IFNg 0.01 ng/ml, replicate 1): 1.67
Surface MHC-I (Fig. 1b) ([1]; IFNg 0.01 ng/ml, replicate 2): 629
Surface MHC-I relative to Parental (Fig. 1c) ([1]; IFNg 0.01 ng/ml, replicate 2): 1.88
Surface MHC-I (Fig. 1b) ([1]; IFNg 0.01 ng/ml, replicate 3): 890
Surface MHC-I relative to Parental (Fig. 1c) ([1]; IFNg 0.01 ng/ml, replicate 3): 2.53
Surface MHC-I (Fig. 1b) ([1]; IFNg 0.01 ng/ml, replicate 4): 1203
Surface MHC-I relative to Parental (Fig. 1c) ([1]; IFNg 0.01 ng/ml, replicate 4): 4.12
Surface MHC-I (Fig. 1b) ([1]; IFNg 0.03 ng/ml, replicate 1): 1830
Surface MHC-I relative to Parental (Fig. 1c) ([1]; IFNg 0.03 ng/ml, replicate 1): 6.85
Surface MHC-I (Fig. 1b) ([1]; IFNg 0.03 ng/ml, replicate 2): 1489
Surface MHC-I relative to Parental (Fig. 1c) ([1]; IFNg 0.03 ng/ml, replicate 2): 3.84
Surface MHC-I (Fig. 1b) ([1]; IFNg 0.03 ng/ml, replicate 3): 2317
Surface MHC-I relative to Parental (Fig. 1c) ([1]; IFNg 0.03 ng/ml, replicate 3): 4.36
Surface MHC-I (Fig. 1b) ([1]; IFNg 0.03 ng/ml, replicate 4): 3040
Surface MHC-I relative to Parental (Fig. 1c) ([1]; IFNg 0.03 ng/ml, replicate 4): 6.59
Surface MHC-I (Fig. 1b) ([1]; IFNg 0.10 ng/ml, replicate 1): 1622
Surface MHC-I relative to Parental (Fig. 1c) ([1]; IFNg 0.10 ng/ml, replicate 1): 4.52
Surface MHC-I (Fig. 1b) ([1]; IFNg 0.10 ng/ml, replicate 2): 2825
Surface MHC-I relative to Parental (Fig. 1c) ([1]; IFNg 0.10 ng/ml, replicate 2): 4.07
Surface MHC-I (Fig. 1b) ([1]; IFNg 0.10 ng/ml, replicate 3): 4165
Surface MHC-I relative to Parental (Fig. 1c) ([1]; IFNg 0.10 ng/ml, replicate 3): 3.06
Surface MHC-I (Fig. 1b) ([1]; IFNg 0.10 ng/ml, replicate 4): 5343
Surface MHC-I relative to Parental (Fig. 1c) ([1]; IFNg 0.10 ng/ml, replicate 4): 3.53
Surface MHC-I (Fig. 1b) ([1]; IFNg 0.30 ng/ml, replicate 1): 3870
Surface MHC-I relative to Parental (Fig. 1c) ([1]; IFNg 0.30 ng/ml, replicate 1): 4.44
Surface MHC-I (Fig. 1b) ([1]; IFNg 0.30 ng/ml, replicate 2): 3946
Surface MHC-I relative to Parental (Fig. 1c) ([1]; IFNg 0.30 ng/ml, replicate 2): 3.12
Surface MHC-I (Fig. 1b) ([1]; IFNg 0.30 ng/ml, replicate 3): 5512
Surface MHC-I relative to Parental (Fig. 1c) ([1]; IFNg 0.30 ng/ml, replicate 3): 2.33
Surface MHC-I (Fig. 1b) ([1]; IFNg 0.30 ng/ml, replicate 4): 7772
Surface MHC-I relative to Parental (Fig. 1c) ([1]; IFNg 0.30 ng/ml, replicate 4): 2.83
Surface MHC-I (Fig. 1b) ([1]; IFNg 1.00 ng/ml, replicate 1): 6610
Surface MHC-I relative to Parental (Fig. 1c) ([1]; IFNg 1.00 ng/ml, replicate 1): 2.73
Surface MHC-I (Fig. 1b) ([1]; IFNg 1.00 ng/ml, replicate 2): 4959
Surface MHC-I relative to Parental (Fig. 1c) ([1]; IFNg 1.00 ng/ml, replicate 2): 2.67
Surface MHC-I (Fig. 1b) ([1]; IFNg 1.00 ng/ml, replicate 3): 6900
Surface MHC-I relative to Parental (Fig. 1c) ([1]; IFNg 1.00 ng/ml, replicate 3): 2.19
Surface MHC-I (Fig. 1b) ([1]; IFNg 1.00 ng/ml, replicate 4): 9888
Surface MHC-I relative to Parental (Fig. 1c) ([1]; IFNg 1.00 ng/ml, replicate 4): 2.56
Surface MHC-I (Fig. 1b) ([1]; IFNg Nil, replicate 1): 267
Surface MHC-I relative to Parental (Fig. 1c) ([1]; IFNg Nil, replicate 1): 0.97
Surface MHC-I (Fig. 1b) ([1]; IFNg Nil, replicate 2): 322
Surface MHC-I relative to Parental (Fig. 1c) ([1]; IFNg Nil, replicate 2): 1.05
Surface MHC-I (Fig. 1b) ([1]; IFNg Nil, replicate 3): 345
Surface MHC-I relative to Parental (Fig. 1c) ([1]; IFNg Nil, replicate 3): 1.07
Surface MHC-I (Fig. 1b) ([1]; IFNg Nil, replicate 4): 296
Surface MHC-I relative to Parental (Fig. 1c) ([1]; IFNg Nil, replicate 4): 1.15
Surface IFNGR1 (Fig. 2b) ([2]; IFNg 0.01 ng/ml, replicate 1): 4507
Surface IFNGR1 relative to Parental (Fig. 2c) ([2]; IFNg 0.01 ng/ml, replicate 1): 2.35
Surface IFNGR1 (Fig. 2b) ([2]; IFNg 0.01 ng/ml, replicate 2): 4382
Surface IFNGR1 relative to Parental (Fig. 2c) ([2]; IFNg 0.01 ng/ml, replicate 2): 2.34
Surface IFNGR1 (Fig. 2b) ([2]; IFNg 0.01 ng/ml, replicate 3): 3988
Surface IFNGR1 relative to Parental (Fig. 2c) ([2]; IFNg 0.01 ng/ml, replicate 3): 2.16
Surface IFNGR1 (Fig. 2b) ([2]; IFNg 0.03 ng/ml, replicate 1): 4026
Surface IFNGR1 relative to Parental (Fig. 2c) ([2]; IFNg 0.03 ng/ml, replicate 1): 1.83
Surface IFNGR1 (Fig. 2b) ([2]; IFNg 0.03 ng/ml, replicate 2): 3680
Surface IFNGR1 relative to Parental (Fig. 2c) ([2]; IFNg 0.03 ng/ml, replicate 2): 1.69
Surface IFNGR1 (Fig. 2b) ([2]; IFNg 0.03 ng/ml, replicate 3): 3566
Surface IFNGR1 relative to Parental (Fig. 2c) ([2]; IFNg 0.03 ng/ml, replicate 3): 2.17
Surface IFNGR1 (Fig. 2b) ([2]; IFNg 0.10 ng/ml, replicate 1): 4027
Surface IFNGR1 relative to Parental (Fig. 2c) ([2]; IFNg 0.10 ng/ml, replicate 1): 2.07
Surface IFNGR1 (Fig. 2b) ([2]; IFNg 0.10 ng/ml, replicate 2): 3862
Surface IFNGR1 relative to Parental (Fig. 2c) ([2]; IFNg 0.10 ng/ml, replicate 2): 2.28
Surface IFNGR1 (Fig. 2b) ([2]; IFNg 0.10 ng/ml, replicate 3): 3601
Surface IFNGR1 relative to Parental (Fig. 2c) ([2]; IFNg 0.10 ng/ml, replicate 3): 2.06
Surface IFNGR1 (Fig. 2b) ([2]; IFNg 0.30 ng/ml, replicate 1): 3595
Surface IFNGR1 relative to Parental (Fig. 2c) ([2]; IFNg 0.30 ng/ml, replicate 1): 1.70
Surface IFNGR1 (Fig. 2b) ([2]; IFNg 0.30 ng/ml, replicate 2): 3609
Surface IFNGR1 relative to Parental (Fig. 2c) ([2]; IFNg 0.30 ng/ml, replicate 2): 2.03
Surface IFNGR1 (Fig. 2b) ([2]; IFNg 0.30 ng/ml, replicate 3): 3263
Surface IFNGR1 relative to Parental (Fig. 2c) ([2]; IFNg 0.30 ng/ml, replicate 3): 1.89
Surface IFNGR1 (Fig. 2b) ([2]; IFNg 1.00 ng/ml, replicate 1): 3107
Surface IFNGR1 relative to Parental (Fig. 2c) ([2]; IFNg 1.00 ng/ml, replicate 1): 1.68
Surface IFNGR1 (Fig. 2b) ([2]; IFNg 1.00 ng/ml, replicate 2): 3061
Surface IFNGR1 relative to Parental (Fig. 2c) ([2]; IFNg 1.00 ng/ml, replicate 2): 1.74
Surface IFNGR1 (Fig. 2b) ([2]; IFNg 1.00 ng/ml, replicate 3): 2676
Surface IFNGR1 relative to Parental (Fig. 2c) ([2]; IFNg 1.00 ng/ml, replicate 3): 1.66
Surface IFNGR1 (Fig. 2b) ([2]; IFNg Nil, replicate 1): 4564
Surface IFNGR1 relative to Parental (Fig. 2c) ([2]; IFNg Nil, replicate 1): 2.27
Surface IFNGR1 (Fig. 2b) ([2]; IFNg Nil, replicate 2): 4378
Surface IFNGR1 relative to Parental (Fig. 2c) ([2]; IFNg Nil, replicate 2): 2.36
Surface IFNGR1 (Fig. 2b) ([2]; IFNg Nil, replicate 3): 4200
Surface IFNGR1 relative to Parental (Fig. 2c) ([2]; IFNg Nil, replicate 3): 2.25
